Tests used:
[1] = test system: Friend Leukaemia Virus (FLV); conditions: Krieg et al. 1978; cited from earlier work
E. coli CN314 = assay: In vitro antibacterial MIC and synergy studies against E. coli CN314; conditions: Escherichia coli
Kaposi's sarcoma (KS) = assay: Treatment of Kaposi's sarcoma in 9 patients; format: in vivo, human (patients)
Method: In this study, 9 patients diagnosed as having Kaposi's sarcoma (KS) were treated with AZT and the following effects observed.

HIV [2] = assay: AZT/Interferon combinations vs. HIV in vitro in PBMC: overall inhibition / synergy (all measures of viral replication, isobologram); format: cell-based; conditions: experiment 1, all concentrations of AZT
HIV p24 = assay: AZT/Interferon combinations vs. HIV in vitro in PBMC: HIV p24 antigen by radioimmunoassay; format: cell-based; conditions: Experiment 4-Day 14, IFNαA 0
clinical = conditions: human, in vivo
Method: On days 2 and 3 the patients were also given 500 mg probenecid (PB) every 6 hours and a single dose of AZT was given on day 3.

HIV [3] = assay: AZT/Interferon combinations vs. HIV in vitro in PBMC: reverse transcriptase (RT) activity of supernatants; format: cell-based; conditions: rIFNαA 0; for mean reverse transcriptase value: Experiment 2-Day 10
[4] = Ostertag et al. 1974; cited from earlier work
[5] = test system: thrombocytopaenia purpura; assay: Anti-ITP activity: platelet count in a patient with thrombocytopaenia purpura; format: in vivo, human (patient)
Method: A patient having a platelet count of 38,000 mm^-3 was diagnosed as having thrombocytopaenia purpura (platelet count <100,000 mm^-3) and was treated for 6 weeks with 5 mg/kg of AZT intravenously every 6 hours during which time, their platelet count rose to 140,000 mm^-3. Treatment was then changed to 5 mg/kg/4 hours orally for 4 weeks, discontinued for 4 weeks, when a drop in platelet numbers, to 93,000 mm^-3 after 2 weeks, and to 70,000 mm^-3 after 4 weeks, was seen. Treatment was recommenced at 5 mg/kg/4 hours orally for 5 weeks and the platelet count rose to 194,000 mm^-3.

HIV [6] = assay: AZT/Acyclovir combinations vs. HIV in vitro (protection); format: cell-based
[7] = test system: vaccinia, HSVI and varicella zoster virus (VZV); conditions: De Clerq et al. 1980, incl. vaccinia; cited from earlier work
[8] = test system: Friend Leukemia Virus (FLV); assay: Anti-Friend Leukemia Virus plaque inhibition in FG-10 cells; format: cell-based; conditions: 144 h, read-out: Azidothymidine ED50

SMILES: Cc1cn([C@H]2C[C@H](N=[N+]=[N-])[C@@H](CO)O2)c(=O)[nH]c1=O [AZT]
- activity against FLV in in vitro experiments [1]: active against FLV
- MIC (E. coli CN314): 1 mg/L
- response (Kaposi's sarcoma (KS); 9 patients): 50%
- patients exhibiting regression of lesions (Kaposi's sarcoma (KS); of 9 patients): Three
- patients in which lesions progressed (Kaposi's sarcoma (KS); of 9 patients): 3 patients
- patients in which the KS remained stable (Kaposi's sarcoma (KS); of 9 patients): 2 patients
- patients with complete cure (Kaposi's sarcoma (KS); of 9 patients): one
- response relative to preferred current therapy (Kaposi's sarcoma (KS); vs recombinant a-interferon): comparable to that obtained with treatment with the preferred current therapy for KS, recombinant a-interferon
- inhibition of HIV (HIV [2]): fully inhibitory
- HIV p24 (HIV p24; AZT 0.02 μM): 100-200 ng protein/ml
- HIV p24 (HIV p24; AZT 0.04 μM): 25-30 ng protein/ml
- HIV p24 (HIV p24; AZT 0.08 μM): 11.2 ng protein/ml
- decrease in the total body clearance (Cl/F) (clinical): 3 -fold
- peak (Cmax) and trough (Cmin) levels on day 3 vs day 1 (clinical): significantly higher than the corresponding levels on day 1
- tl/2 (clinical; po, 2 mg/kg): 0.89 h
- AUC (clinical; po, 2 mg/kg, AUC): 3.7 µM·h
- Cmax (clinical; po, 2 mg/kg, Cmax): 3.74 µM
- Tmax (clinical; po, 2 mg/kg, Tmax): 30 min
- half-life (clinical; po, 2 mg/kg, mean half-life (tl/2)): 52.8 min
- half-life (clinical; po, 2 mg/kg, tl/2): 52.2 min
- mean reverse transcriptase value (HIV [3]; AZT 0.01 μM): 159 cpm/10^6 cells × 10^3
- mean reverse transcriptase value (HIV [3]; AZT 0.02 μM): 110 cpm/10^6 cells × 10^3
- mean reverse transcriptase value (HIV [3]; AZT 0.04 μM): 71 cpm/10^6 cells × 10^3
- mean reverse transcriptase value (HIV [3]; AZT 0.08 μM): 31 cpm/10^6 cells × 10^3
- mean reverse transcriptase value (HIV [3]; AZT 0.16 μM): 7 cpm/10^6 cells × 10^3
- mean RT value (HIV [3]; Experiment 3-Day 13, AZT 0.02 μM): 51 cpm/10^6 cells × 10^3
- mean RT value (HIV [3]; Experiment 3-Day 13, AZT 0.04 μM): 10 cpm/10^6 cells × 10^3
- mean RT value (HIV [3]; Experiment 3-Day 13, AZT 0.08 μM): 2 cpm/10^6 cells × 10^3
- mean RT value (HIV [3]; Experiment 3-Day 13, AZT 0.16 μM): 5 cpm/10^6 cells × 10^3
- mean RT value (HIV [3]; Experiment 4-Day 11, AZT 0.02 μM): 8 cpm/10^6 cells × 10^3
- mean RT value (HIV [3]; Experiment 4-Day 11, AZT 0.04 μM): 4 cpm/10^6 cells × 10^3
- mean RT value (HIV [3]; Experiment 4-Day 11, AZT 0.08 μM): 1 cpm/10^6 cells × 10^3
- cellular toxicity [4]: lack of cellular toxicity
- platelet count ([5]; 2 weeks after discontinuation): 93,000 mm^-3
- platelet count ([5]; 4 weeks after discontinuation): 70,000 mm^-3
- platelet count ([5]; after 6 weeks 5 mg/kg i.v. every 6 hours (start 38,000)): 140,000 mm^-3
- platelet count ([5]; treatment recommenced, 5 mg/kg/4 hours orally for 5 weeks): 194,000 mm^-3
- inhibition at 8 µM (HIV [6]; Human immunodeficiency virus 1, T-cell, AZT alone, 8 μM): 100%
- AZT concentration required to achieve 100% protection (HIV [6]; with ACV 0 μg/ml): 8 µM
- activity against any viruses used in their tests [7]: no appreciable activity
- EC50 [8]: 5 nM
